Data as given in patent US20210238136A1, “AZETIDINE DERIVATIVE, AND PRODRUG THEREOF” (DAIICHI SANKYO COMPANY, LIMITED, priority 2018, published 2021).

Legend:
NZB/W F1 mice = assay: Survival of NZB/W F1 mice that naturally develop SLE-like symptoms and nephritis; type: in vivo, mouse (NZB/W F1); settings: oral from the age of 12 weeks; Example 44 at 30, 100 mg/kg BID; MMF 60 mg/kg QD; Vehicle survival rate 35%
Protocol: FIG. 4 is a graph showing the effect of the compound of Example 44 in NZB/W F1 mice that naturally develop SLE-like symptoms and nephritis. To NZB/W F1 mice, the compound of Example 44 was orally administered at 30, 100 mg/kg, BID, and MMF was orally administered at 60 mg/kg, QD, starting at the age of 12 weeks. The vertical axis indicates the survival rate and the horizontal axis indicates the period. Both of the Vehicle group and the compound of Example 44 administration group was at N=20, and the MMF administration group was at N=15. The surviving days was analyzed by the Kaplan-Meier method, and the group in which the p-value was 0.001 or less compared to the Vehicle group by the log rank test is shown by ***.
Effect of Compound of Example 44 in NZB/W F1 Mice that Naturally Develop SLE-Like Symptoms and Nephritis
To NZB/W F1 mice that naturally develop SLE-like symptoms and nephritis, test substance was forcibly orally administered (0.2 mL/mouse) twice daily with a feeding needle, starting at the age of 12 weeks. The compound of Example 44 was orally administered at 30, 100 mg/kg, BID, and MMF was orally administered at 60 mg/kg, QD. […] Mice were observed daily, and those that reached a dying state such as weight loss and dyspnea were euthanized, and the survival rate was evaluated. The number of survival days was analyzed by the Kaplan-Meier method and the log rank test was performed. […]

mouse acute GVHD model = assay: Mouse acute GVHD model, IFN-γ concentration in plasma; type: in vivo, mouse (BDF1 host, C57BL/6N donor); settings: for effective dose, suppression of IFN-γ in plasma: oral, twice daily from Day 0, plasma on Day 7, significant relative to the Vehicle group
Protocol: FIG. 2 is a graph showing the effect of the compound of Example 89 in mouse acute GVHD models. The compound of Example 89 was orally administered at 1.5, 5, 15, or 50 mg/kg, BID. The vertical axis is the concentration of interferon gamma (sometimes abbreviated herein as IFN-γ or IFN-g) in blood on day 7 after elicitation in the model.
Effect of Test Substance in Mouse Acute GVHD Model
A mouse acute graft-versus-host disease (GVHD) model was generated in accordance with a previous report (Puliaev R et al. Differential requirement for IFN-gamma in CTL maturation in acute murine graft-versus-host disease. J Immunol. 173, 910-9 (2004)). Splenocytes were prepared from euthanized donor mice (C57BL/6N), suspended in PBS without hemolysis of erythrocytes, and administered to host mice, BDF1 mice, from the tail vein (the number of transfer cells was adjusted to be 7 to 8×10^7 cells/0.2 mL/mouse in every test, and matched between individuals within the same test). In the Normal group, 0.2 mL of PBS was administered in place of the cells. The test substance was crushed in an agate mortar, and then suspended in a 0.5% hydroxypropyl cellulose (HPC) solution to prepare a dosage solution. In the Vehicle group, 0.5% HPC was used as a dosage solution. To the host mice, the dosage solution was forcibly orally administered (0.2 mL/mouse) twice daily with a feeding needle from the morning of Day 0 (cell transfer) to the end of the experiment. The tail vein was cut without anesthesia on Day 7 and a small amount of blood was collected with a hematocrit tube (EDTA). Plasma was collected by centrifugation and IFN-γ concentration in plasma was measured with an αLISA kit (Mouse IFN-γ alphaLISA, PerkinElimer, AL501C). […] For the difference between the Normal group and the Vehicle group, comparison between two groups was performed by Student's t-test. The difference between the Vehicle group and the test substance administration group was analyzed by a parametric multiple-comparison test, Dunnett test.

mouse chronic GVH model = assay: Kidney disorder in mouse chronic GVH model, urine protein/creatinine ratio; type: in vivo, mouse (BDF1 host, DBA2 donor); settings: for minimum effective dose / effective dose, urine protein/creatinine ratio: oral, twice daily from Day 4, urine on Day 32, p-value of 0.05 or less relative to the Vehicle group
Protocol: FIG. 3 is a box plot graph showing the effect of the compound of Example 89 on renal disorder in mouse chronic GVH models. The compound of Example 89 was orally administered at 1.5, 5, 15, or 50 mg/kg, BID, and MMF was orally administered at 30 mg/kg, BID. […] The boxes in the graph represent box plots of the median and the quartile range for each group at N=12. The plots show the values of each individual. Both between the non-elicitation group (Normal group) and the Vehicle group, and between the Vehicle group and the MMF group were compared by the Wilcoxon test (non-parametric, two-group comparison). # means that the p-value is 0.05 or less, and $$ means that the p-value is 0.01 or less, respectively. The Vehicle group and the compound group of Example 89 were analyzed by the Shirley-Williams test (non-parametric, multiple comparisons with dose response). The groups in which the p-value is 0.01 or less and 0.001 or less are shown by ** and ***, respectively.
Effect of Test Substance on Kidney Disorder in Mouse Chronic GVH Model
A mouse chronic graft-versus-host (GVH) model was generated in accordance with a previous report (Via CS. Advances in lupus stemming from the parent-into-F1 model. Trends Immunol. 31, 236-45 (2010)). Splenocytes were prepared from euthanized donor mice (DBA2 mice), suspended in PBS without hemolysis of erythrocytes, and administered to host mice, BDF1 mice, from tail veins (1×10^8 cells/0.2 mL/mouse) at Day 0 and Day 4, twice. In the Normal group, 0.2 mL of PBS was administered in place of the cells. The test substance was crushed in an agate mortar, and then suspended in a 0.5% hydroxypropyl cellulose (HPC) solution to prepare a dosage solution. In the Vehicle group, 0.5% HPC was used as a dosage solution. To the host mice, the dosage solution was forcibly orally administered (0.2 mL/mouse) twice daily with a feeding needle from Day 4 (second cell transfer) to the end of the experiment. Urine was collected on Day 32 under free diet with a metabolic cage. Urine protein concentration was measured with a urine protein test kit (total protein kit microTP test wako, FUJIFILM Wako Pure Chemical Corporation, pyrogallol red method), and urine creatinine concentration was measured using a creatinine test kit (LabAssay™ creatinine, FUJIFILM Wako Pure Chemical Corporation, Jaffe method), and the ratio of urine protein to creatinine was calculated for each individual. […] For the difference between the Normal group and the Vehicle group, the Wilcoxon test (non-parametric, comparison between two groups) was performed, and for the difference between the Vehicle group and the test substance administration group, the analysis was performed by the Shirley-Williams test (non-parametric, multiple comparison with dose response).

Structure (SMILES) | survival until the end of the experiment (age of 44 weeks) (NZB/W F1 mice) | effective dose, suppression of IFN-γ in plasma (mouse acute GVHD model) | minimum effective dose / effective dose, urine protein/creatinine ratio (mouse chronic GVH model) | effect on urine protein/creatinine ratio (mouse chronic GVH model; oral 1.5, 5, 15, or 50 mg/kg BID, Day 32) | effect on IFN-γ in plasma (mouse acute GVHD model; oral 1.5, 5, 15, or 50 mg/kg BID, Day 7)
CC(OC(=O)N[C@@H](Cc1cccc(S(=O)(=O)N2CC(Oc3ccc(F)cc3)(c3ccccc3)C2)c1)C(=O)O)OC(=O)C(C)(C)C (stereo partly drawn) [Example 44, (2S)-3-(3-((3-(4-Fluorophenoxy)-3-phenylazetidin-1-yl)sulfonyl)phenyl)-2-(((1-(pivaloyloxy)ethoxy)carbonyl)amino)propanoic acid] | no death was observed | ≥ 10 mg/kg, BID | – | – | –
COc1c(C)c2c(c(O)c1C/C=C(\C)CCC(=O)OCCN1CCOCC1)C(=O)OC2 [MMF, mycophenolate mofetil, reference compound] | no death was observed | – | – | – | –
C[C@H](OC(=O)N[C@@H](Cc1cccc(S(=O)(=O)N2CC(Oc3cccc(F)c3)(c3ccccc3)C2)c1)C(=O)O)OC(=O)C(C)(C)C [Example 97] | – | – | 15 mg/kg, BID | – | –
CC(C)C(=O)O[C@@H](C)OC(=O)N[C@@H](Cc1cccc(S(=O)(=O)N2CC(Oc3ccc(F)cc3)(c3ccccc3)C2)c1)C(=O)O [Example 104, (S)-3-(3-((3-(4-Fluorophenoxy)-3-phenylazetidin-1-yl)sulfonyl)phenyl)-2-((((R)-1-(isobutyryloxy)ethoxy)carbonyl)amino)propanoic acid] | – | ≥ 15 mg/kg, BID | 15 mg/kg, BID | – | –
CC(=O)O[C@@H](C)OC(=O)N[C@@H](Cc1cccc(S(=O)(=O)N2CC(Oc3cccc(F)c3)(c3ccccc3)C2)c1)C(=O)O [Example 89, (S)-2-((((R)-1-Acetoxyethoxy)carbonyl)amino)-3-(3-((3-(3-fluorophenoxy)-3-phenylazetidin-1-yl)sulfonyl)phenyl)propanoic acid] | – | ≥ 1.5 mg/kg, BID | 15 mg/kg, BID | suppressed the urine protein/creatinine ratio in a dose-dependent manner | inhibited IFN-γ in plasma in a dose-dependent manner
